Measured values: patent publication US20020012630A1, “Methods for testing compounds useful in treating diabetic complications” (priority 2000, published 2002)
Where no end group is shown, it is not given here.

Legend:
[1] = test system: experimental wounds of streptozotocin-induced diabetic rats; assay: Wound healing in experimental wounds of streptozotocin-induced diabetic rats; format: in vivo, rat; details: 6-week streptozotocin-induced diabetic rats treated with 20 mg/kg, compared with normal untreated rats; FIGS. 5, 6A-6B
Protocol: The blood glucose levels of streptozotocin-induced diabetic rats was maintained at between 300-350 mg/dL with subcutaneous injection of insulin. Experimental wounds, having a diameter of […] and including the panniculus carnosus muscle, were made on the backs of diabetic rats. Wounds were serially photographed with a digital camera at the time of wounding, and then again every three days after wound induction until the time of closure, and the area of the wound measured (and expressed as cm^2). Wound closure was defined as complete epithelialization. The degree of wound contraction is calculated as: {(size of wound at day 0−size of wound at day X)/size of wound at day 0)}×100. Diabetic rats were administered 20 mg/kg of the aldose reductase inhibitor 3(4,5,7-triflurobenzothiazol-2-yl)methyl-indole-N-acetic acid at either the time of diabetes induction (simulating treatment prior to diabetic complications) or 6 weeks after diabetes induction (simulating treatment at the time of diabetic complications).

[2] = test system: full-thickness skin wounds of db/db mice; details: three doses on days 0, 1 and 2 under Tegederm wound dressing, dose of 10-1000 nM; cited from earlier work

Compound	wound healing rate (wound size and wound contraction) [1]	time of healing [2]
O=C(O)Cn1cc(Cc2nc3c(F)c(F)cc(F)c3s2)c2ccccc21 [3-(4,5,7-triflurobenzothiazol-2-yl)methyl-indole-N-acetic acid]	healed at the same rate as the wounds in normal rats	–
Substance P (RPKPQQFFGLM-NH2; ends and bridges not checked; UniProt P20366 58-68, looked up) [SP]	–	improved time of healing
